Values quoted from earlier work as cited in PMC5879685 (Proceedings of the National Academy of Sciences of the …, 2018).

Nc1nc2c(ncn2[C@@H]2O[C@@H]3COP(O)(=S)O[C@H]3[C@H]2O)c(=O)[nH]1 (single isomer, unassigned) [B, Guanosine-3′,5′-cyclic monophosphorothioate, RP-isomer]
Effect on CNGC (CNGC): + | Effect on PKG (PKG): −

Nc1nc2c(ncn2[C@@H]2O[C@@H]3COP(=O)(O)O[C@H]3[C@H]2O)c(=O)[nH]1 [Compound A, Guanosine-3′,5′-cyclic monophosphate]
Effect on CNGC (CNGC): + | Effect on PKG (PKG): +

Nc1nc2c(nc(Br)n2[C@@H]2O[C@@H]3COP(O)(=S)O[C@H]3[C@H]2O)c(=O)[nH]1 (single isomer, unassigned) [C, 8-bromoguanosine-3′,5′-cyclic monophosphorothioate, RP-isomer]
Effect on CNGC (CNGC): + | Effect on PKG (PKG): −
